Results as given in patent publication US8946173B2, “Cancer cell death inducing agent having effects of potentiating anticancer drug against anticancer-drug-resistant cancer” (Momotaro-Gene Inc., priority 2007, dated 2015).

System: MCF7/ADR cells
Test: Cell survival rate assay with doxorubicin
Type: cell-based, human
Details: no treatment group (no vector)
Description: Cells were seeded in a 96-well flat bottom microplate at 1000 cells per well. After 24 hours of incubation, cells were treated with Ad-LacZ and Ad-REIC at 100 MOI in serum free medium for 2 hours, followed by exchange with fresh complete medium. After 48 hours, floating dead cells were removed by medium exchange. Adhering cells were cultured with doxorubicin at various concentrations for 72 hours. At the end of incubation, cell survival rates were measured using CellTiter96 (trademark) Aqueous One Solution Cell Proliferation Assay (Promega Corp.).

**Q.** How did the cell survival % (10 μM doxorubicin) turn out when `COc1cccc2c1C(=O)c1c(O)c3c(c(O)c1C2=O)C[C@@](O)(C(=O)CO)C[C@@H]3O[C@H]1C[C@H](N)[C@H](O)[C@H](C)O1` [doxorubicin] was run?
**A.** Its cell survival % is 88.1%.

**Q.** What about the cell survival rates (25 μM doxorubicin) of the same compound?
**A.** The cell survival rates was 45.9%.
